Like-named read-outs stand apart in the source and are kept apart here.
Columns and labels:
RON kinase [1] = target: T1, RON kinase (Homo sapiens, UniProt Q04912); assay: RON Kinase Assay; assay type: biochemical; conditions: for IC50: methods of the Biological Data section; for Fold Selectivity RON/MET: ratio RON IC50 / MET IC50
T1 construct: GST tagged recombinant human RON, amino acids 983-1400; GST; host or cells: insect cells
T1 sequence (Q04912 983-1400): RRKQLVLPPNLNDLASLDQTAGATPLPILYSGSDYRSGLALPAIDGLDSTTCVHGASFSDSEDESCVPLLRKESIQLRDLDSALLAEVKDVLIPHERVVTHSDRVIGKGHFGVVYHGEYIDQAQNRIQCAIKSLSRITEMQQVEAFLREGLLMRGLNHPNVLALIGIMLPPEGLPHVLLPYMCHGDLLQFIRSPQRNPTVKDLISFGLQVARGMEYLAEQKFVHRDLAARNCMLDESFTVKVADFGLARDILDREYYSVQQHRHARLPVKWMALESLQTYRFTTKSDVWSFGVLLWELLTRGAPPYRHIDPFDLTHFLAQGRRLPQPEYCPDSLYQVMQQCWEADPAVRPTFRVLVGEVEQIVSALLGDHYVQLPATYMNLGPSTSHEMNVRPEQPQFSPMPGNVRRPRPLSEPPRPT
Protocol: Activity of RON kinase was determined by a radioactive filtration binding assay where incorporation of ^33P from ^33P-γ-ATP to the substrate was measured. In this assay, detection of ^33P was indicative of RON phosphorylation activity which was directly proportional to the amount of phosphorylated peptide substrate ([…], SEQ ID NO: 4). Initially, the reaction mixture contained: 400 nM RON, 20 mM HEPES, pH 7.5, 10 mM MgCl2, 2 mM MnCl2, 1 mM EGTA, 0.02% Brij 35, 0.02 mg/mL BSA, 0.1 mM Na3VO4, and 2 mM DTT. The reaction mixture was incubated with compound at room temperature for 30 minutes. To initiate the reaction, an equal volume of 20 μM ATP and 0.4 mg/mL peptide substrate were added and then incubated at room temperature for 2 hours. The final assay conditions were: 200 nM RON, 10 μM ATP, 0.2 mg/mL substrate 20 mM HEPES, pH 7.5, 10 mM MgCl2, 1 mM EGTA, 0.02% Brij 35, 0.02 mg/mL BSA, 0.1 mM Na3VO4, 2 mM DTT, and 1% DMSO. IC50 values were calculated from a series of % Activity values determined at a range of inhibitor concentrations using software routines as implemented in the GraphPad Prism software package.
GST tagged recombinant human RON, amino acids 983-1400. Expressed in insect cells.

VEGFR-1 (FLT1 kinase) = target: T2, VEGFR-1 (FLT1 kinase) (Homo sapiens, UniProt P17948); assay: FLT1 Kinase Assay (VEGFR-1); assay type: biochemical; conditions: for IC50: methods of the Biological Data section; for Fold Selectivity VEGR-1/MET: ratio VEGFR-1 IC50 / MET IC50
T2 construct: GST tagged recombinant human FLT1, amino acids 781-1338; GST; host or cells: insect cells
T2 sequence (P17948 781-1338): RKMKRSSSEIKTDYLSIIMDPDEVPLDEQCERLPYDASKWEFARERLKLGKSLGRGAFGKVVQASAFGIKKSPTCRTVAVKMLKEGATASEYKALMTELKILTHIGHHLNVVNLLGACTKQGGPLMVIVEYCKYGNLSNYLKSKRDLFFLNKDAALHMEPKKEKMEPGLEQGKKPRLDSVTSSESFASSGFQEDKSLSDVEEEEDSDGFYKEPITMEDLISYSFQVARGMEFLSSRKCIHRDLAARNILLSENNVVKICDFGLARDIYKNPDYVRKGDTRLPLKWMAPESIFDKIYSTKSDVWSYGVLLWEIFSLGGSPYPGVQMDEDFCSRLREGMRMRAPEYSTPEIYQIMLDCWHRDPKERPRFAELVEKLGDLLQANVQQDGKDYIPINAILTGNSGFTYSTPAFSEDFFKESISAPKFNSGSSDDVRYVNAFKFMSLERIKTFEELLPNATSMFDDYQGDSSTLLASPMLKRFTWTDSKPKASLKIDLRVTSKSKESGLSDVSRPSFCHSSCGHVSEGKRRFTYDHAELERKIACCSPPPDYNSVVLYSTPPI
Protocol: Activity of FLT1 kinase was determined by a radioactive filtration binding assay where incorporation of ^33P from ^33P-γ-ATP to the substrate is measured. In this assay, detection of ^33P was indicative of FLT1 phosphorylation activity which was directly proportional to the amount of phosphorylated peptide substrate poly[Glu:Tyr] (4:1). Initially, the reaction mixture contained: 400 nM FLT1, 20 mM HEPES, pH 7.5, 10 mM MgCl2, 2 mM MnCl2, 1 mM EGTA, 0.02% Brij 35, 0.02 mg/mL BSA, 0.1 mM Na3VO4, and 2 mM DTT. The reaction mixture was incubated with compound at room temperature for 30 minutes. To initiate the reaction, an equal volume of 20 μM ATP and 0.2 mg/mL peptide substrate were added and then incubated at room temperature for 2 hours. The final assay conditions were: 200 nM FLT1, 10 μM ATP, 0.1 mg/ml, substrate 20 mM HEPES, pH 7.5, 10 mM MgCl2, 1 mM EGTA, 0.02% Brij 35, 0.02 mg/mL BSA, 0.1 mM Na3VO4, 2 mM DTT, and 1% DMSO. IC50 values were calculated from a series of % Activity values determined at a range of inhibitor concentrations using software routines as implemented in the Graph Pad Prism software package.
GST tagged recombinant human FLT1, amino acids 781-1338. Expressed in insect cells.

VEGFR-2 (KDR kinase) = VEGFR-2 (KDR kinase) (Homo sapiens, UniProt P35968, DEL940-989/E990V); conditions: values published in the '188/'556 applications; cited from earlier work
Sequence of VEGFR-2 (KDR kinase) (P35968 with tags, fused parts or gaps DEL940-989/E990V): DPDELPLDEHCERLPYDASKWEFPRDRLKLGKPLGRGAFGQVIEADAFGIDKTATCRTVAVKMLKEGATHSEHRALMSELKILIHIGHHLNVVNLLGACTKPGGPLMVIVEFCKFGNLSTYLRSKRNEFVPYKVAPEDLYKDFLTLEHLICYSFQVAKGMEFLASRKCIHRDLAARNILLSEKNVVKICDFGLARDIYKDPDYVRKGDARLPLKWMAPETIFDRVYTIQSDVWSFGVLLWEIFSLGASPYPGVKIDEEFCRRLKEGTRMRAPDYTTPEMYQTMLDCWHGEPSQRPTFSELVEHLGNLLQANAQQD

RON kinase [2] = target: T1, RON kinase; conditions: values published in the '188/'556 applications; cited from earlier work
c-MET kinase = target: T3, c-MET kinase (Homo sapiens, UniProt P08581); conditions: values published in the '188 application (pp. 96-97); cited from earlier work
T3 construct: His6 with TEV-site leader (N); purchased Invitrogen PV3143
T3 sequence (P08581 with tags, fused parts or gaps): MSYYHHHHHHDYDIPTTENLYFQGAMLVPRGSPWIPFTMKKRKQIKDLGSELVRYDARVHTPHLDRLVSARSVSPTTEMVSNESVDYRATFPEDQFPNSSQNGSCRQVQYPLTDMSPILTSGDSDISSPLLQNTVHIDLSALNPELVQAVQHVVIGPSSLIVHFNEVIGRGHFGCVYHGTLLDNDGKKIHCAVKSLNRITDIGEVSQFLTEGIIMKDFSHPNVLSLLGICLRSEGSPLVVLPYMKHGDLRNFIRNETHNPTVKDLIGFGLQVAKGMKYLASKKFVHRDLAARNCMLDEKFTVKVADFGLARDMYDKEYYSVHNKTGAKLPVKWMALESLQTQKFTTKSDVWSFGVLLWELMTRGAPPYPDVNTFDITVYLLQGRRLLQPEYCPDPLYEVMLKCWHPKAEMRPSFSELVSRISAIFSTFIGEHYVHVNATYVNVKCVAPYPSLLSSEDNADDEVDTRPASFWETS

Compound	IC50 (RON kinase [1]) [nM]	Fold Selectivity RON/MET (RON kinase [1])	IC50 (VEGFR-1 (FLT1 kinase)) [nM]	Fold Selectivity VEGR-1/MET (VEGFR-1 (FLT1 kinase))	IC50 (VEGFR-2 (KDR kinase)) [nM]	IC50 (RON kinase [2]) [nM]	IC50 (c-MET kinase) [nM]
CC(=O)Nc1cc(Oc2cc(F)c(NC(=O)C3(C(=O)Nc4ccc(F)cc4)CC3)cc2F)ccn1 [Compound D, N-(4-(2-acetamidopyridin-4-yloxy)-2,5-difluorophenyl)-N′-(4-fluorophenyl)cyclopropane-1,1-dicarboxamide]	≥ 5000	>1,250	79	19.75	–	–	–
CC(=O)Nc1cc(Oc2ccc(NC(=O)C3(C(=O)Nc4ccc(F)cc4)CC3)c(F)c2)ccn1 [Compound E, N-(4-(2-acetamidopyridin-4-yloxy)-2-fluorophenyl)-N′-(4-fluorophenyl)cyclopropane-1,1-dicarboxamide]	100	3.85	160	6.15	–	–	–
CN1CCN(C2CCN(C(=O)Nc3cc(Oc4cc(F)c(NC(=O)C5(C(=O)Nc6ccc(F)cc6)CC5)cc4F)ccn3)CC2)CC1 [Compound G]	–	0.04	–	0.45	100	2	53
O=C(Nc1cc(Oc2cc(F)c(NC(=O)C3(C(=O)Nc4ccc(F)cc4)CC3)cc2F)ccn1)N1CC(CO)C1 [Compound H]	–	0.75	–	3.5	10	3	4
